In ChEMBL document CHEMBL1137267, “Novel aminobenzimidazoles as selective MCH-R1 antagonists for the treatment of metabolic diseases” (Bioorg Med Chem Lett, 2006):
Calls of active or inactive are those of the source. No cut-off for these calls is given here.

Assays:
[1] = target: Melanin-concentrating hormone receptor 2 (Homo sapiens) (UniProt Q969V1); test: Binding activity against human MCH-R2
[2] = target: T1, Melanin-concentrating hormone receptor 1 (Homo sapiens, UniProt Q99705); test: Binding activity against human MCH-R1
T1 sequence (Q99705 whole entry): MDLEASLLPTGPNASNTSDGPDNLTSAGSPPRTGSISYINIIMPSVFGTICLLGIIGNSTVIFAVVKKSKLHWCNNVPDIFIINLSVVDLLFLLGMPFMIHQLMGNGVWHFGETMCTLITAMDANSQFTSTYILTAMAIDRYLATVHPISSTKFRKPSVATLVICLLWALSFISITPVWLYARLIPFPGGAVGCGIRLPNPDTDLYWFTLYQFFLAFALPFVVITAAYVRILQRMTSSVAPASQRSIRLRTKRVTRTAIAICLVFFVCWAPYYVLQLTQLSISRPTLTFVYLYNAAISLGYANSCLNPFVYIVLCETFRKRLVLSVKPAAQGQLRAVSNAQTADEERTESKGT

Mus musculus [3] = test: Inhibition of ex vivo MCH-ADO binding in mice 6 hours after 30mg/kg peroral dose; type: functional; conditions: po
[4] = AUC in rats following 10 mg/kg peroral dose; type: ADME, organism-based; parameters: dose 10 mg/kg, route oral; conditions: rat, plasma, po
Mus musculus [5] = test: Inhibition of ex vivo MCH-ADO binding in mice 24 hours after 30 mg/kg peroral dose; type: functional; conditions: route oral
[6] = target: T1, Melanin-concentrating hormone receptor 1; test: Inhibition of MCH-mediated calcium influx into CHO cells expressing human MCH-R1by FLIPR assay; type: functional, cell-based
Mus musculus [7] = species on record: Mus musculus; test: Inhibition of cumulative food intake by fasted DIO mice at 4 hours; type: functional
Mus musculus [8] = species on record: Mus musculus; test: Inhibition of cumulative food intake by fasted DIO mice at 6 hours; type: functional
Mus musculus [9] = species on record: Mus musculus; test: Inhibition of cumulative food intake by fasted DIO mice at 2 hours; type: functional
Mus musculus [10] = species on record: Mus musculus; test: Inhibition of cumulative food intake by fasted DIO mice at 24 hours; type: functional

Sequence of Melanin-concentrating hormone receptor 2 (Homo sapiens) (Q969V1 whole entry): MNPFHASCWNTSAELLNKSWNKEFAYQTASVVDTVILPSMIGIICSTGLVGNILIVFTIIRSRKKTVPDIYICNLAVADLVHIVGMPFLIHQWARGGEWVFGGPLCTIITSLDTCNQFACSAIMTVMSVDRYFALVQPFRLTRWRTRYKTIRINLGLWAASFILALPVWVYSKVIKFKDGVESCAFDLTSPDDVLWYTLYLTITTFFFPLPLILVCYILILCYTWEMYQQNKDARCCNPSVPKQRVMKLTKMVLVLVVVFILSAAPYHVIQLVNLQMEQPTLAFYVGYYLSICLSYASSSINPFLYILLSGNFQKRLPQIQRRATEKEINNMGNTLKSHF

Row | SMILES | inhibition [1] | Ki [2] | inhibition in vivo at 30 mg/kg (Mus musculus [3]) | inhibition in vivo at 30 mg/kg (Mus musculus [5]) | also measured
1 | CN1CCN(CCCN(c2nc3cc(F)c(F)cc3[nH]2)[C@@H]2CCC3(c4cccc(CN5CCCCC5)c4)C[C@@H]3C2)CC1 (single isomer, unassigned) | inactive |  |  |  | 
2 | CN1CCN(CCCN(c2nc3cc(F)c(F)cc3[nH]2)[C@@H]2CCC3(c4cccc(CN5CCN(C)CC5)c4)C[C@@H]3C2)CC1 (single isomer, unassigned) | inactive |  |  |  | 
3 | CN1CCN(CCCN(c2nc3cc(F)c(F)cc3[nH]2)[C@@H]2CCC3(c4cccc(C#N)c4)C[C@@H]3C2)CC1 (single isomer, unassigned) | inactive |  | 37% | 17% | AUC [4]: 0.293 µg·h/mL
4 | CC(C)(C)OC(=O)N1CCC(CN(c2nc3cc(Cl)c(Cl)cc3[nH]2)[C@@H]2CCC3(c4cccc(C#N)c4)C[C@@H]3C2)CC1 (single isomer, unassigned) | inactive | 1.14 µM |  |  | 
5 | CO/N=C/c1cccc([C@]23CC[C@@H](N(CCCN4CCN(C)CC4)c4nc5cc(F)c(F)cc5[nH]4)C[C@H]2C3)c1 | inactive | 0.0282 µM |  |  | 
6 | CN1CCN(CCCN(c2nc3cc(Cl)c(Cl)cc3[nH]2)[C@@H]2CCC3(c4cccc(C#N)c4)C[C@@H]3C2)CC1 (single isomer, unassigned) | inactive |  | 81% | 97% | Inhibition (Mus musculus [7]): 19%; Inhibition (Mus musculus [8]): 18%; Inhibition (Mus musculus [9]): 12%; AUC [4]: 0.965 µg·h/mL; Inhibition (Mus musculus [10]): 9%
7 | CN1CCN(CCCN(c2nc3cc(F)c(F)cc3[nH]2)[C@@H]2CC[C@]3(c4cccc(CN5CCC[C@H]5CO)c4)C[C@@H]3C2)CC1 | inactive |  |  |  | 
8 | CN(C)Cc1cccc(C23CC[C@@H](N(CCCN4CCN(C)CC4)c4nc5cc(F)c(F)cc5[nH]4)C[C@H]2C3)c1 (single isomer, unassigned) | inactive | 0.328 µM |  |  | 
9 | CN1CCN(CCCN(c2nc3cc(F)c(Cl)cc3[nH]2)[C@@H]2CC[C@]3(c4cccc(C#N)c4)C[C@H]23)CC1 | inactive |  | 92% | 77% | Inhibition (Mus musculus [7]): 19%; Inhibition (Mus musculus [8]): 21%; Inhibition (Mus musculus [9]): 13%; Kb [6]: 0.01 µM; Inhibition (Mus musculus [10]): 5%
10 | CN1CCN(CCCN(c2nc3cc(F)c(F)cc3[nH]2)[C@@H]2CC[C@]3(c4cccc(CN5CC[C@H](O)C5)c4)C[C@@H]3C2)CC1 | inactive | 0.441 µM |  |  | 
11 | CN1CCN(CCCN(c2nc3cc(F)c(F)cc3[nH]2)[C@@H]2CCC3(c4cccc(CO)c4)C[C@@H]3C2)CC1 (single isomer, unassigned) | inactive |  |  |  | 
12 | CN1CCN(CCCN(c2nc3cc(F)c(Cl)cc3[nH]2)[C@@H]2CC[C@]3(c4ccc(C#N)cc4)C[C@H]23)CC1 | inactive |  | 100% | 81% | 

Further lines, with some results ahead:

Row | inhibition [1] | Ki [2] | SMILES | inhibition in vivo at 30 mg/kg (Mus musculus [3]) | inhibition in vivo at 30 mg/kg (Mus musculus [5]) | also measured
13 | inactive | 0.0163 µM | CN1CCN(CCCN(c2nc3cc(F)c(F)cc3[nH]2)[C@@H]2CCC3(c4cccc(C=O)c4)C[C@@H]3C2)CC1 (single isomer, unassigned) |  |  | 
14 | inactive | 0.0015 µM | CS(=O)(=O)N1CCC(CN(c2nc3cc(Cl)c(Cl)cc3[nH]2)[C@@H]2CCC3(c4cccc(C#N)c4)C[C@@H]3C2)CC1 (single isomer, unassigned) | 12% | 0% | 
15 | inactive | 0.0257 µM | CN1CCN(CCCN(c2nc3cc(F)c(F)cc3[nH]2)[C@@H]2CCC3(c4cccc(CN5CCCC5)c4)C[C@@H]3C2)CC1 (single isomer, unassigned) |  |  | 
16 | inactive | 0.0207 µM | CN1CCN(CCCN(c2nc3cc(F)c(F)cc3[nH]2)[C@@H]2CC[C@]3(c4cccc(C#N)c4)C[C@H]23)CC1 | 75% | 33% | AUC [4]: 1.49 µg·h/mL
17 | inactive | 0.0067 µM | CS(=O)(=O)N1CCC(CN(c2nc3cc(F)c(Cl)cc3[nH]2)[C@@H]2CCC3(c4cccc(C#N)c4)C[C@@H]3C2)CC1 (single isomer, unassigned) |  |  | 
18 |  | 0.0086 µM | CN1CCN(CCCN(c2nc3cc(F)c(C(F)(F)F)cc3[nH]2)[C@@H]2CC[C@]3(c4ccc(C#N)cc4)C[C@H]23)CC1 | 100% | 94% | Kb [6]: 0.043 µM; AUC [4]: 2.8 µg·h/mL
19 | inactive | 0.027 µM | CS(=O)(=O)N1CCC(CN(c2nc3cc(F)c(F)cc3[nH]2)[C@@H]2CCC3(c4cccc(C#N)c4)C[C@@H]3C2)CC1 (single isomer, unassigned) | 0% | 0% | AUC [4]: 0.35 µg·h/mL
20 | inactive | 0.0142 µM | CN1CCN(CCCN(c2nc3cc(Cl)c(Cl)cc3[nH]2)[C@@H]2CCC3(c4cccc(CN5CCOCC5)c4)C[C@@H]3C2)CC1 (single isomer, unassigned) |  |  | 
21 | inactive | 0.0068 µM | CN1CCN(CCCN(c2nc3cc(Cl)c(Cl)cc3[nH]2)[C@@H]2CC[C@]3(c4cccc(C#N)c4)C[C@H]23)CC1 | 97% | 51% | Kb [6]: 0.02 µM
22 | inactive | 0.0062 µM | CN1CCN(CCCN(c2nc3cc(Cl)c(F)cc3[nH]2)[C@@H]2CCC3(c4cccc(C#N)c4)C[C@@H]3C2)CC1 (single isomer, unassigned) |  |  | 
23 | inactive | 0.0114 µM | CN1CCN(CCCN(c2nc3cc(Cl)c(Cl)cc3[nH]2)[C@@H]2CC[C@]3(c4ccc(C#N)cc4)C[C@H]23)CC1 |  |  | 
24 | inactive | 0.0137 µM | CN1CCN(CCCN(c2nc3cc(Cl)c(Cl)cc3[nH]2)[C@@H]2CCC3(c4cccc(C=O)c4)C[C@@H]3C2)CC1 (single isomer, unassigned) |  |  | 
25 |  | 0.0049 µM | CN1CCN(CCCN(c2nc3cc(Cl)c(F)cc3[nH]2)[C@@H]2CC[C@]3(c4ccc(C#N)cc4)C[C@H]23)CC1 |  |  | 
26 | inactive | 0.0049 µM | CN(C)Cc1cccc(C23CC[C@@H](N(CCCN4CCN(C)CC4)c4nc5cc(Cl)c(Cl)cc5[nH]4)C[C@H]2C3)c1 (single isomer, unassigned) |  |  | 
27 | inactive | 0.0213 µM | CN1CCN(CCCN(c2nc3cc(F)c(F)cc3[nH]2)[C@@H]2CCC3(c4cccc(CN5CCOCC5)c4)C[C@@H]3C2)CC1 (single isomer, unassigned) |  |  | 
28 |  | 0.0056 µM | CN1CCN(CCCN(c2nc3cc(Cl)c(F)cc3[nH]2)[C@@H]2CC[C@]3(c4cccc(C#N)c4)C[C@H]23)CC1 |  |  | AUC [4]: 1.93 µg·h/mL
